Consider two compounds from ChEMBL document CHEMBL5303766, “Data for DCP probe FHT-2344” (2022).

Experiment [1] concerns the target Histamine H1 receptor (Homo sapiens) (UniProt P35367). As to conditions: Compound concentration 10.0 uM.
Experiment [2] deals with Tyrosine-protein kinase Fes/Fps (Homo sapiens) (UniProt P07332). Put plainly: FES SGC Tm panel (DSF). Conditions: for ΔTm: Compound concentration 10.0 uM.
Experiment [3] addresses T1, MAP/microtubule affinity-regulating kinase 4 (Homo sapiens) (UniProt Q96L34).
T1 sequence (whole entry): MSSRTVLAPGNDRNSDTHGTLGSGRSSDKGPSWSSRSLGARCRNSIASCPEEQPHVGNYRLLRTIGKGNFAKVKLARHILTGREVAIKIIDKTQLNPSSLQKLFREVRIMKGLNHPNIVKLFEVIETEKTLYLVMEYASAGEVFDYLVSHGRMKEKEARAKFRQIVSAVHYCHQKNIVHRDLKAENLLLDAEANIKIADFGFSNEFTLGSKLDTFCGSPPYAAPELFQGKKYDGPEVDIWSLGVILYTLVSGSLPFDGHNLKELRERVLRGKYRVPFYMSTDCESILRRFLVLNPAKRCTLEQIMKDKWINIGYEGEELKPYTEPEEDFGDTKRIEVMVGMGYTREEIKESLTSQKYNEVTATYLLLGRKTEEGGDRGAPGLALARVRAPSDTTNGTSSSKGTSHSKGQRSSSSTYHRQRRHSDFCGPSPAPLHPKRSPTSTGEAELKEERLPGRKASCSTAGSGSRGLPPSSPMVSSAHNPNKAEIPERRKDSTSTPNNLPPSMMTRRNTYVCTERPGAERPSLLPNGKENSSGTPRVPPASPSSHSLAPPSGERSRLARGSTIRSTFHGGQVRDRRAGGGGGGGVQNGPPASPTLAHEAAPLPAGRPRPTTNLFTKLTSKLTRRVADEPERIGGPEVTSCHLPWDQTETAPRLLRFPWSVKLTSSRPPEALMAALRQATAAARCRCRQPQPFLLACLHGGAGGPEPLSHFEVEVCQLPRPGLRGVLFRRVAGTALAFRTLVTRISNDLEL
Description: MARK4 SGC Tm panel (DSF). As to conditions: for ΔTm: Compound concentration 10.0 uM.

Experiment [4] addresses Serine/threonine-protein kinase pim-3 (Homo sapiens) (UniProt Q86V86). Put plainly: PIM3 SGC Tm panel (DSF). As to conditions: for ΔTm: Compound concentration 10.0 uM.
The target in experiment [5] is Alpha-1A adrenergic receptor (Homo sapiens) (UniProt P35348). As to conditions: Compound concentration 10.0 uM.
Alpha-1A adrenergic receptor (Homo sapiens), sequence (P35348 whole entry): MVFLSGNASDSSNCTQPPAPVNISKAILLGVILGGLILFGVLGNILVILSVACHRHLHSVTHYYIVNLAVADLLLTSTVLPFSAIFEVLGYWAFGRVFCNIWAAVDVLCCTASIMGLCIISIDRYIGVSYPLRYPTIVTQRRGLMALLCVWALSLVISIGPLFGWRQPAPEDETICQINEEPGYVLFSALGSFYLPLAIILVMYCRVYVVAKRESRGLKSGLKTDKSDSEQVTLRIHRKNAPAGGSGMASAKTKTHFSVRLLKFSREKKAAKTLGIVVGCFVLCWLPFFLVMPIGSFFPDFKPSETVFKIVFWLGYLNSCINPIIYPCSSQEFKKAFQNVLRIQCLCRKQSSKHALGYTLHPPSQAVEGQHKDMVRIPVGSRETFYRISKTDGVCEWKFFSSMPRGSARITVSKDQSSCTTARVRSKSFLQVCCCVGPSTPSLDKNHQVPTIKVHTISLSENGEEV
For experiment [6], the target named is Beta-1 adrenergic receptor (Homo sapiens) (UniProt P08588). As to conditions: Compound concentration 10.0 uM.
Beta-1 adrenergic receptor (Homo sapiens), sequence (P08588 whole entry, looked up): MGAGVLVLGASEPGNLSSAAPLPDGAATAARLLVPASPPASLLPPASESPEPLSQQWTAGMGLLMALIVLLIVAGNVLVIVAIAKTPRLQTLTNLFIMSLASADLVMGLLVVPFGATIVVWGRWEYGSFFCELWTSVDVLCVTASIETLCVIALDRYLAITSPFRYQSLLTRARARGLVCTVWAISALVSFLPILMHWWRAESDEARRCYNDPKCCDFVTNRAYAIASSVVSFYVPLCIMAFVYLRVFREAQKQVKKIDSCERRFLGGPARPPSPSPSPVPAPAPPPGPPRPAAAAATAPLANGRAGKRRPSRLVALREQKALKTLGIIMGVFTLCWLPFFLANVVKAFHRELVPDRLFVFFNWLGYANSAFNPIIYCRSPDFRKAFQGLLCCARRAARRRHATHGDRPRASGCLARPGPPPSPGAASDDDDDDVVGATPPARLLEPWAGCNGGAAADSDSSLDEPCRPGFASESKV
Experiment [7] has as its target Ephrin type-A receptor 2 (Homo sapiens) (UniProt P29317). Put plainly: EPHA2 SGC Tm panel (DSF). As to conditions: for ΔTm: Compound concentration 10.0 uM.
Experiment [8] concerns the target T2, Serine/threonine-protein kinase 17A (Homo sapiens) (UniProt Q9UEE5).
T2 sequence (whole entry): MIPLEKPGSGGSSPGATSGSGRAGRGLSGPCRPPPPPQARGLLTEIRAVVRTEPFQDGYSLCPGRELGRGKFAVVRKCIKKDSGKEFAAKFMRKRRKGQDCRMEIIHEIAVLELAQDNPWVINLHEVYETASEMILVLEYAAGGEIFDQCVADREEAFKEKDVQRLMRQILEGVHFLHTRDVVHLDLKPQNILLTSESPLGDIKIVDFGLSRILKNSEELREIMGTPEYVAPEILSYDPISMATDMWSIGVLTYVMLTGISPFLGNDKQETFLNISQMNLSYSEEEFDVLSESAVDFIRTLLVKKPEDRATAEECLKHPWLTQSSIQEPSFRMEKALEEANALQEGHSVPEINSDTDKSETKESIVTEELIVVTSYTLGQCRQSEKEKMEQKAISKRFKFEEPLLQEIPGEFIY
Put plainly: STK17A SGC Tm panel (DSF). As to conditions: for ΔTm: Compound concentration 10.0 uM.

In experiment [9] the target is T3, Bone morphogenetic protein receptor type-2 (Homo sapiens) (UniProt Q13873).
T3 sequence (whole entry): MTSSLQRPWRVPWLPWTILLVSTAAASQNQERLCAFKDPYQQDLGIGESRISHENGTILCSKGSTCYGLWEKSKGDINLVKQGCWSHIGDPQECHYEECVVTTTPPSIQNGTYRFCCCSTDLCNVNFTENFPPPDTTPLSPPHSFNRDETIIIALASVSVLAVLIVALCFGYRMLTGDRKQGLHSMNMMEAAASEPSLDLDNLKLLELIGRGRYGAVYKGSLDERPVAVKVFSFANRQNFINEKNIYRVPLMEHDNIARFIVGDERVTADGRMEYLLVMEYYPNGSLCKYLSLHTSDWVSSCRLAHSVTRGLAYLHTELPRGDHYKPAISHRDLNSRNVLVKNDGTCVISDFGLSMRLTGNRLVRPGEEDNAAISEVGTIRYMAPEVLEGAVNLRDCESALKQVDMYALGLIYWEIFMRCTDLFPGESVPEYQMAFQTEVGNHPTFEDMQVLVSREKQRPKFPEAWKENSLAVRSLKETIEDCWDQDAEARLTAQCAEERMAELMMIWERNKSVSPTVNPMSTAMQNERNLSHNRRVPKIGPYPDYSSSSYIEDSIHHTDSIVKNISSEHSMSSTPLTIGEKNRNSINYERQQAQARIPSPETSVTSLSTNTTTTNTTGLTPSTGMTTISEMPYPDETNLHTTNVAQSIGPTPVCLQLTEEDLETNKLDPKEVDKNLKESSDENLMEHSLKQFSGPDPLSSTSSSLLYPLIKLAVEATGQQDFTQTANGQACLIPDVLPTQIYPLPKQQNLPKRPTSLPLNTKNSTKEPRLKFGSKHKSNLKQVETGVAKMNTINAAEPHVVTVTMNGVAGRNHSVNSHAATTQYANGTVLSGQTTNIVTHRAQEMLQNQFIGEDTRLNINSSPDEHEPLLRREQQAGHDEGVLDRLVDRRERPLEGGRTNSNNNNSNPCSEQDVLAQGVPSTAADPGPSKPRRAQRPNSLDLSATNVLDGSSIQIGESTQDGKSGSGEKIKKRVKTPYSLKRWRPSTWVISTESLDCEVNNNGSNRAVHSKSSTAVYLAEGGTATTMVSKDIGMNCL
Put plainly: BMPR2 SGC Tm panel (DSF). As to conditions: for ΔTm: Compound concentration 10.0 uM.

For orientation: inhibition means the change of the read-out against control, counted positive when it falls.

Ephrin type-A receptor 2 (Homo sapiens), sequence (P29317 whole entry): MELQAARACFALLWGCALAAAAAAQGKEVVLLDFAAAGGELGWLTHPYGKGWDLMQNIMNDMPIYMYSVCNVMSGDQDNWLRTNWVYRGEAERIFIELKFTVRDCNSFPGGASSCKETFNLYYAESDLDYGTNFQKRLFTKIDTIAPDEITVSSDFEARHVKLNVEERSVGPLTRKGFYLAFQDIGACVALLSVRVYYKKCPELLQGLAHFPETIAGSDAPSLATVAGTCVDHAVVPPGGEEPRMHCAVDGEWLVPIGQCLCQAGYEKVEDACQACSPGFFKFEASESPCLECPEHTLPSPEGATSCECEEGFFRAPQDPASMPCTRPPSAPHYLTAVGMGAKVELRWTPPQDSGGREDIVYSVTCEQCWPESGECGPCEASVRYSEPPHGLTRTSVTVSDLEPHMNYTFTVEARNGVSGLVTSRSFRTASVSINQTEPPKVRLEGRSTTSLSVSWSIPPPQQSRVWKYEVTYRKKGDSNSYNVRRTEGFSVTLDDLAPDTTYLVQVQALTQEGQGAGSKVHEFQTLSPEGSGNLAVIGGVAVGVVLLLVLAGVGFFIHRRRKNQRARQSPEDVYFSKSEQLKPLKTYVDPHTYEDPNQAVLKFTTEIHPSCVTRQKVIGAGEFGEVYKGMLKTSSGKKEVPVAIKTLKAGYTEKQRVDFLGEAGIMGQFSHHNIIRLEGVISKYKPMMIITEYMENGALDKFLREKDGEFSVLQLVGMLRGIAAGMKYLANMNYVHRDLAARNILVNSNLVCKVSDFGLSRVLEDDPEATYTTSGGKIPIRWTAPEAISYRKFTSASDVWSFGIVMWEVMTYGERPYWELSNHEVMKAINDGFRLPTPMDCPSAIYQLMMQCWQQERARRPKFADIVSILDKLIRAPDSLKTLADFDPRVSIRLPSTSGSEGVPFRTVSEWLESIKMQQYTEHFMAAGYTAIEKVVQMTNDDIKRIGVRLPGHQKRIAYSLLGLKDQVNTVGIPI
Tyrosine-protein kinase Fes/Fps (Homo sapiens), sequence (P07332 whole entry): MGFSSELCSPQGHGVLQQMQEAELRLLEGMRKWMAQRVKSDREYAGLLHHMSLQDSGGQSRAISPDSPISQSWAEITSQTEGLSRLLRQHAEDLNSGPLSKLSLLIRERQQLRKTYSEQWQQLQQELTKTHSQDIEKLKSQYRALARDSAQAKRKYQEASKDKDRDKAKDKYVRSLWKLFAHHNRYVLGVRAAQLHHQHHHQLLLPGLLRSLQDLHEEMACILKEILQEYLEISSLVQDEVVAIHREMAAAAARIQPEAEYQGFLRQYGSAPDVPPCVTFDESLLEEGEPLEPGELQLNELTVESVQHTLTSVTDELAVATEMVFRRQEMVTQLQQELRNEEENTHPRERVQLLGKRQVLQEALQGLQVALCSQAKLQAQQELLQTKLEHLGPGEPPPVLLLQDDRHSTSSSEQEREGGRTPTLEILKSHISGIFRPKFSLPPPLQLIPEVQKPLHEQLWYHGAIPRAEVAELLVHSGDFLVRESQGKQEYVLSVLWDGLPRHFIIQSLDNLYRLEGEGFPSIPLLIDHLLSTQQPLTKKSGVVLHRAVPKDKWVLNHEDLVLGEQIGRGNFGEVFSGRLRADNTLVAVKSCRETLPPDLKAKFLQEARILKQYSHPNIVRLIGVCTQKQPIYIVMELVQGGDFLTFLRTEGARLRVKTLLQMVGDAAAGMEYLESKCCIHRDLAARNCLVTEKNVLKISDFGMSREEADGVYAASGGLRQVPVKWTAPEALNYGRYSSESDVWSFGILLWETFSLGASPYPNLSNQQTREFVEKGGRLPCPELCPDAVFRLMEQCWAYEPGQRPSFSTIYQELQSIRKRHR
Histamine H1 receptor (Homo sapiens), sequence (P35367 whole entry): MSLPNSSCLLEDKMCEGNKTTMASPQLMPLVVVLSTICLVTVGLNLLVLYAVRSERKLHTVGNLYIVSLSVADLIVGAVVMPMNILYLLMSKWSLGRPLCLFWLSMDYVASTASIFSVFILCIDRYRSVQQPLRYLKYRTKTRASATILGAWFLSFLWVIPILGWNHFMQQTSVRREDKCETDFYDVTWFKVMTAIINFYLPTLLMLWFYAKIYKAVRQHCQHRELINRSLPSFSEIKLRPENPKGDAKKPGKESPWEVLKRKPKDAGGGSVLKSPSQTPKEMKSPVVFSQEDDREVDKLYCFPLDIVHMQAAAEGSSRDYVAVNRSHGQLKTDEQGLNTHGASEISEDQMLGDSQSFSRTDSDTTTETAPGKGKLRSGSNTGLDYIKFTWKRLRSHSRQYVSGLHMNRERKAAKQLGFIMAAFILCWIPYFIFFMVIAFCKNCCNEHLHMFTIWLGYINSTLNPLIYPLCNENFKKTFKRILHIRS

In the case of `COC[C@H](NC(=O)c1ccn(S(C)(=O)=O)c1)C(=O)Nc1nc(-c2cccc(-c3ccn(C)n3)c2)cs1`, the inhibition in [1] was 1.95%; in [5] it was 12.3%; in experiment [6], 1.4%. Also, the delta Tm Staurosporine positive control stood at 8.7 in experiment [2]; 15.8 in experiment [3]; 17.6 in experiment [4]; 7.67 in experiment [7]; 12.6 in [8]; 2.89 in [9]. Also, the ΔTm is 0.123 in experiment [2]; 0.492 in experiment [3]; 0.116 in experiment [4]; 0.202 in experiment [7]; 0.566 in experiment [8]; 0.371 in [9].

On to `C[C@H](NC(=O)c1cn(C2(C#N)CC2)cn1)C(=O)Nc1nc(-c2cccc(-c3ccn(C)n3)c2)cs1`, for which the inhibition in experiment [1] is 12.5%; in experiment [5], 15.2%; in experiment [6], 3.85%. For the same compound, the delta Tm Staurosporine positive control in experiment [2] turned out to be 8.7; in experiment [3], 15.8; in [4] it was 17.6; in [7], 7.67; in [8] it was 12.6; in experiment [9] it was 2.89. Besides, the ΔTm in [2] was 0.0445; in experiment [3], 0.462; in experiment [4], 0.698; in experiment [7], 0.2; in experiment [8] it was 1.03; in experiment [9] it was 0.38.
